Source: PMC9611758, “Bioactive Platinum(IV) Complexes Incorporating Halogenated Phenylacetates” (Molecules, 2022)
“Also recorded” adds a separate entry of the source.

Tests used:
HT29 colon = experiment: MTT growth inhibition assay, HT29; format: cell-based, human; details: MTT assay, 72 h
U87 glioblastoma = experiment: MTT growth inhibition assay, U87; format: cell-based, human; details: 72 h
MCF-7 breast = experiment: MTT growth inhibition assay, MCF-7; format: cell-based, human; details: for GI50: MTT assay, 72 h
A2780 ovarian = experiment: MTT growth inhibition assay, A2780; format: cell-based, human; details: 72 h
H460 lung = experiment: MTT growth inhibition assay, H460; format: cell-based, human; details: 72 h
A431 skin = experiment: MTT growth inhibition assay, A431; format: cell-based, human; details: 72 h
Du145 prostate = experiment: MTT growth inhibition assay, Du145; format: cell-based, human; details: MTT assay, 72 h
BE2-C neuroblastoma = experiment: MTT growth inhibition assay, BE2-C; format: cell-based, human; details: 72 h
SJ-G2 glioblastoma = experiment: MTT growth inhibition assay, SJ-G2; format: cell-based, human; details: 72 h
MIA pancreas = experiment: MTT growth inhibition assay, MIA; format: cell-based, human; details: 72 h
[1] = test system: non-tumour derived MCF10A breast line; experiment: MTT growth inhibition assay, MCF10A; format: cell-based, human; details: 72 h
[2] = test system: ADDP-resistant ovarian variant; experiment: MTT growth inhibition assay, ADDP; format: cell-based, human; details: MTT assay, 72 h
panel of cell lines = experiment: MTT growth inhibition assay, whole panel of cell lines; format: cell-based, human; details: average over the cell lines tested, MTT assay, 72 h
[3] = Lipophilicity by HPLC (log kw); format: physicochemical; details: for log kw: chromatographic lipophilicity index, extrapolated to 100% d.i.H2O; for log kw (y-intercept of log k versus [CH3CN] % plot, Figure S80): linear fit
Excerpt: For lipophilicity measurements, HPLC was utilised instead of the traditional shake-flask method, as described previously. Recent studies have also reported the efficiency of HPLC in measuring the lipophilicity of compounds [79, 80]. Each complex was eluted under several isocratic ratios. A standard curve was generated to calculate the log value of the capacity factor (log k) according to Equation (1). Following Equation (2), the percentage of organic solvent (CH3CN) in the mobile phase from each isocratic run was plotted against log kw (Figure S80). Log kw is the chromatographic lipophilicity index or measure of lipophilicity of the complex, so a higher value corresponds to greater lipophilicity. Because the selected axial ligands in this study contain F, Cl, Br, and I, it was only appropriate to determine the influence of the halogens on the overall lipophilicity of the platinum(IV) complexes. […] Conversely, the least lipophilic complex was the phen derivative containing 4-FPA, 3, with a log kw of 0.25. Furthermore, for the phen derivatives, the order of increasing lipophilicity was 3 > 1 > 5 > 7, which corresponds to the order of increasing size of the halogens, F > Cl > Br > I. This pattern was also observed with the 5,6-Me2phen derivatives (4 > 2 > 6 > 8), thereby confirming that the halogens increased the order of lipophilicity accordingly based on their size.
For lipophilicity measurements, analytical HPLC was utilised. Elution profiles were acquired on an Agilent (Melbourne, VIC, Australia) Technologies 1260 Infinity instrument equipped with a Phenomenex Onyx^TM Monolithic C18-reverse phase column (100 × 4.6 mm, 5 µm pore size) (Sydney, NSW, Australia). The mobile phase consisted of solvents, A (0.06% TFA in d.i.H2O) and B (0.06% TFA in CH3CN/d.i.H2O (90:10)). Potassium iodide was used as an external dead volume marker to determine the dead time of the column. Retention times (TR) were measured at varying isocratic ratios ranging from 30 to 36% of solvent B at 1 mL·min^−1 mL. An injection volume of 10 µL was utilised. Capacity factors were determined according to Equation (1):(1) k=(TR−T0)/T0 where k is the capacity factor, TR is the retention time of the analyte, and T0 represents the dead time. A minimum of four different mobile compositions were used for each complex to calculate k. A linear plot was generated of log k against the concentration of CH3CN in the mobile phase to determine the value of log kw expressed by Equation (2):(2) logk=Sφ+logkw where S is the slope, φ is the concentration of the CH3CN in the mobile phase, and log kw represents the capacity factor of the complex in 100% d.i.H2O. Extrapolation of this linear plot to the y-intercept indicates the log kw value.

[4] = Reduction experiments with AsA by 1H-NMR and 1D-195Pt-NMR; format: physicochemical; details: D2O, 37 °C; for T50% (approximate time at which 50% reduction occurs): 10 mM PBS (~7.4 pH); for T50% (approximate time at which 50% reduction occurs) / time at which reduction starts: 1H-NMR; for time at which reduction starts / extent of reduction at 1 h (1H-NMR) / extent of reduction 1 h after the final 1H-NMR experiment (1D-195Pt-NMR): PBS; for extent of reduction 1 h after the final 1H-NMR experiment (1D-195Pt-NMR): regions −2800 and 400 ppm
Excerpt: Platinum(IV) complexes are reduced to their platinum(II) precursors by intracellular biological reducing agents such as AsA or GSH in tumour cells. However, the precise mechanism by which reduction occurs is not fully understood. In this paper, reduction reaction experiments were undertaken on the synthesised platinum(IV) complexes, 1–8, with the aid of ^1H-NMR and 1D-^195Pt-NMR spectroscopy. The method used for the reduction reaction experiments was adapted from the literature without modifications. A total of 10 mM PBS (~7.4 pH) was selected as media, and AsA was used as the biological reducing agent to investigate the reduction property of 1–8. Prior to the reduction reaction experiments, a control was prepared where each metal complex was dissolved with PBS in D2O. 1D-^195Pt-NMR was measured within the regions of −2800 and 400 ppm (30 min per region), at 37 °C. This was undertaken to confirm that the PBS would not interfere with the reduction process of the metal complexes. […] The approximate time points for the studied complexes at which an estimated 50% reduction had occurred, in the presence of AsA, as represented by T50%, are summarised in Table 6.
The reduction properties of 1–8 were monitored using ^1H-NMR and 1D-^195Pt-NMR spectroscopy on a 400 MHz Bruker (Melbourne, VIC, Australia) Avance Spectrometer. A sequence of ^1H-NMR experiments was carried out for 1 h at 37 °C, followed by 1D-^195Pt-NMR within the regions of −2800 and 400 ppm. An amount of 10 mM PBS (~7.4 pH) was transferred to a vial and reduced to dryness through rotary evaporation. AsA (~1 mg) was combined with the metal complex (~5 mg) and transferred to the vial containing the dried PBS. A total of 600 µL of D2O was then added to the vial to dissolve the complex, AsA, and the PBS together.

HT29 colon cells = experiment: ROS detection assay (DCFH-DA); format: cell-based, human; details: HT29 colon cells, treated at GI50 concentration (TBHP positive control 20 μM)
Excerpt: Although ROS is required for cancer cell function and progression, it can induce programmed cell death or apoptosis. […] In this study, we report the ROS activity of the studied platinum(IV) complexes, 1–8, together with the individual axial ligands (4-CPA, 4-FPA, 4-BPA, and 4-IPA) in the human cancer cell line, HT29 colon (Figure 19, Table 8, and Figure S95). The ROS potential of their platinum(II) and platinum(IV) precursors in the same cell line is also presented for comparison purposes (Table 8). […] HT29 colon cells were stained by DCFH-DA and then treated with the complexes at each specific GI50 concentration. Upon ROS production, the DCFH-DA produced dichlorodihydrofluorescein, a fluorescent product. The measured fluorescence was, therefore, proportional to the produced ROS.
To investigate the presence of ROS in treated cells, a DCFDA/H2DCFDA-cellular ROS Assay Kit (Abcam, Cambridge, MA, USA) was used, as previously described. A total of 25,000 cells/mL of HT29 cells in DMEM were seeded in 96-well plates. Cells were washed with 1X kit buffer, and then stained with 25 μM 2′,7′-dichlorofluorescein diacetate (DCFH-DA) and incubated for 45 min. DCFH-DA was then removed, and cells were then re-washed with 1X kit buffer, after which phenol red free media was added. Cells were then treated with a GI50 drug concentration for each complex. The plates were directly scanned to measure fluorescence (relative fluorescence units (RFU)) at different time points using the Glo-Max®-Multimode microplate reader (Promega Corporation, Alexandra, VIC, Australia) at an excitation/emission of 485/535 nm. To generate the positive control (20 μM tert-butyl hydroperoxide (TBHP)), cells were washed with 1X kit buffer, and stained with DCFDA (25 μM) for 45 min; this was removed and TBHP was added in phenol red free media, and the resulting solution was scanned as described above.

SMILES | GI50 (HT29 colon) | GI50 (U87 glioblastoma) | GI50 (MCF-7 breast) | GI50 (A2780 ovarian) | GI50 (H460 lung) | GI50 (A431 skin) | GI50 (Du145 prostate) | GI50 (BE2-C neuroblastoma) | GI50 (SJ-G2 glioblastoma) | GI50 (MIA pancreas) | GI50 [1] | GI50 [2] | GI50 (panel of cell lines) | log kw [3] | log kw (y-intercept of log k versus [CH3CN] % plot, Figure S80) [3] | T50% (approximate time at which 50% reduction occurs) [4] | extent of reduction 1 h after the final 1H-NMR experiment (1D-195Pt-NMR) [4] | ROS production 24 h (HT29 colon cells) | ROS production 48 h (HT29 colon cells) | ROS production 72 h (HT29 colon cells) | also measured
N[C@H]1CCCC[C@@H]1N.O=C(Cc1ccc(Cl)cc1)[O][Pt+2]1([OH])[N]2C=CC=c3ccc4c(c32)[N]1C=CC=4 [Complex 1, [Pt^IV(phen)(SS-DACH)(4-CPA)(OH)]^2+] | 150 ± 64 nM | 740 ± 230 nM | 860 ± 180 nM | 280 ± 67 nM | 380 ± 81 nM | 560 ± 73 nM | 140 ± 43 nM | 490 ± 93 nM | 420 ± 92 nM | 270 ± 42 nM | 290 ± 90 nM | 290 ± 50 nM | 406 ± 90 nM | 0.75 | 0.7472 | 15 to 20 min | reduced entirely to PHENSS; also recorded: complete reduction | 272 ± 9 RFU | 368 ± 19 RFU | 409 ± 11 RFU | time at which reduction starts [4]: 5 min; extent of reduction at 1 h (1H-NMR) [4]: almost entirely reduced to its platinum(II) precursor, PHENSS
Cc1c(C)c2c3c4c1=CC=C[N]4[Pt+2]([OH])([O]C(=O)Cc1ccc(Cl)cc1)[N]3C=CC=2.N[C@H]1CCCC[C@@H]1N [Complex 2, [Pt^IV(5,6-Me2phen)(SS-DACH)(4-CPA)(OH)]^2+] | 22 ± 9.2 nM | 79 ± 30 nM | 180 ± 77 nM | 43 ± 10 nM | 200 ± 170 nM | 41 ± 8 nM | 33 ± 21 nM | 110 ± 18 nM | 100 ± 45 nM | 28 ± 5.5 nM | 35 ± 7.8 nM | 26 ± 4.5 nM | 75 ± 30 nM | – | 0.9477 | 20 to 25 min | entirely reduce back to its platinum(II) precursor, 56MESS; also recorded: complete reduction | 358 ± 21 RFU | 508 ± 16 RFU | 564 ± 10 RFU | fold less potent than 56MESS (MCF-7 breast): ~2 fold; time at which reduction starts [4]: 5 min; extent of reduction at 1 h (1H-NMR) [4]: almost reduced
N[C@H]1CCCC[C@@H]1N.O=C([O-])Cc1ccc(F)cc1.[OH-].[Pt+4].c1cnc2c(c1)ccc1cccnc12 [Complex 3, [Pt^IV(phen)(SS-DACH)(4-FPA)(OH)]^2+] | 210 ± 30 nM | 1000 ± 150 nM | 740 ± 60 nM | 340 ± 70 nM | 320 ± 30 nM | 450 ± 60 nM | 100 ± 17 nM | 810 ± 200 nM | 337 ± 60 nM | 230 ± 30 nM | 320 ± 10 nM | 250 ± 10 nM | 426 ± 60 nM | 0.25 | 0.249 | 5 to 10 min | complete reduction | 305 ± 28 RFU | 409 ± 22 RFU | 558 ± 13 RFU | –
